Converted amounts (≈) assume the structure as drawn.

The record followed here is US8324264B1, “Inhibitors of bacterial biofilms and related methods” (Sequoia Sciences, Inc., priority 2011, dated 2012).

The test system of one experiment is P. aeruginosa biofilms. Description: Biofilm growth assay (spreading biofilm on semi-solid agar), P. aeruginosa. Type of experiment: cell-based. Conditions: biofilm growth assay, overnight 37° C., vs negative controls, Tables 1-5; for IC85: Pseudomonas aeruginosa, read-out: P. aeruginosa: concentration that reduces the area of the spreading biofilm by greater than or equal to 85%. The source says: (§1) “Biofilm Growth Assay” refers to an assay performed on semi-solid agar surface where the bacteria collectively move out from an inoculation point. To those skilled in the art, the act of bacteria collectively moving out from an inoculation point on a semi-solid surface may be referred to as swarming or a spreading biofilm. (Anderson, et al Microbiology, 2003, 149, 37-46; Daniels, et al. FEMS Microbiology Reviews, 2004, 28, 261-289). The procedure to perform this assay is described in detail in the Examples. This type of surface motility by bacteria has been reported in the literature by those skilled in the art. […] These references are incorporated herein by reference in their entirety.
(§2) The biofilm growth assay was carried out to measure swarming or biofilm spreading on semi-solid agar media in round plates (for example, 100×15 mm), also referred to as Petri dishes. For E. coli, the plates contained LB medium with 0.6% agar and 0.5% glucose. P. aeruginosa plates were made with M8 agar supplemented with 0.2% glucose, 100 μM CaCl2, 1 mM MgSO4, and 0.5% Casamino acids. The agar plates of this assay consisted of 0.4% to 0.7% agar (Bacto or Noble agar), although other media may also be used as described in the literature and known to those skilled in the art. Test compounds at the desired concentration were added to the cooled, autoclaved media. Portions of the media were then poured into the plates (20 mL/plate), and the plates allowed to dry at room temperature for approximately 3 to 4 hours. Alternatively, however, plates may be dried in a laminar flow hood for approximately fifteen to twenty minutes. Overnight cultures were grown in a 37° C. shaker in LB (E. coli) or TSB (P. aeruginosa). Plates were inoculated by placing 5 μL of the appropriate overnight culture in the centers of the plates. The plates then were incubated overnight at 37° C. The area of the zone of spreading bacteria was then measured and replicates are averaged. Percent inhibition was calculated as 100×(area without compound−area with compound)/(area without compound). An active compound was considered that which reduces the area of the spreading biofilm compared to negative controls by greater than or equal to 85%. The values shown in Table 1 are the concentrations of compounds (μg/ml) tested in the biofilm growth assay that reduce the area of the spreading biofilm compared to negative controls by greater than or equal to 85% unless noted differently in Table 1. A > (“greater than” symbol) as used in Table 1 is well understood to those skilled in the art as an indication that the listed concentration was not effective at this concentration.
(§3) All of the compounds shown in Tables 2, 3, 4, and 5, below, were prepared semi-synthetically from oleanolic acid, except for Compounds 2 and 3. Compound 2 was prepared from ursolic acid. Compound 3 was prepared from hederagenin, but could also be prepared from an oleanolic acid analog with a hydroxyl at C23 or C24. These compounds were tested in the spreading biofilm assay according to the methods detailed in Example I, above. The values shown in Tables 2, 3, 4, and 5 are the concentrations of compounds tested in the biofilm growth assay that reduce the area of the spreading biofilm compared to negative controls by greater than or equal to 85%.

For a further experiment, the system named is E. coli biofilms. Description: Biofilm growth assay (spreading biofilm on semi-solid agar), E. coli. The format is cell-based. Conditions: biofilm growth assay, overnight 37° C., vs negative controls, Tables 1-5; for IC85: Escherichia coli, read-out: E. coli: concentration that reduces the area of the spreading biofilm by greater than or equal to 85%.
Description: as §1, §2, §3

As for `CC1(C)CC[C@]2(c3nnc(S)[nH]3)CC[C@]3(C)C(=CCC4[C@@]5(C)Cc6c(n[nH]c6N)C(C)(C)C5CC[C@]43C)C2C1` (stereo partly drawn) [Compound 75, 5-((4aS,6aS,6bR,13aR)-12-Amino-2,2,6a,6b,9,9,13a-heptamethyl-2,3,4,4a,5,6,6a,6b,7,8,8a,9,11,13,13a,13b,14,15b-octadecahydro-1H-chryseno[1,2-f]indazol-4-a-yl)-4H-1,2,4-triazole-3-thiol], the “P. aeruginosa: concentration that reduces the area of the spreading biofilm by greater than or equal to 85%” value in the experiment with P. aeruginosa biofilms came to 0.5 µg/mL. Besides, the “E. coli: concentration that reduces the area of the spreading biofilm by greater than or equal to 85%” value in the experiment with E. coli biofilms was 1 µg/mL.
Consider `CC1(C)CC[C@]2(C(=O)n3cnc(S)n3)CC[C@]3(C)C(=CCC4[C@@]5(C)Cc6c(n[nH]c6N)C(C)(C)C5CC[C@]43C)C2C1` (stereo partly drawn) [Compound 76, ((4aS,6aS,6bR,13aR)-12-Amino-2,2,6a,6b,9,9,13a-heptamethyl-2,3,4,4a,5,6,6a,6b,7,8,8a,9,11,13,13a,13b,14,15b-octadecahydro-1H-chryseno[1,2-f]indazol-4-a-yl)(3-mercapto-1H-1,2,4-triazol-1-yl)methanone], for which the IC85 came to 0.5 µg/mL (≈ 0.867 µM) in the experiment on P. aeruginosa biofilms and 2 µg/mL (≈ 3.47 µM) in the experiment on E. coli biofilms.
In the same order, the values of `Cc1nnc(S)n1NC(=O)[C@]12CCC(C)(C)CC1C1=CCC3[C@@]4(C)Cc5c(n[nH]c5N)C(C)(C)C4CC[C@@]3(C)[C@]1(C)CC2` (stereo partly drawn) [Compound 77, (4aS,6aS,6bR,13aR)-12-Amino-N-(3-mercapto-5-methyl-4H-1,2,4-triazol-4-yl)-2,2,6a,6b,9,9,13a-heptamethyl-2,3,4,4a,5,6,6a,6b,7,8,8a,9,11,13,13a,13b,14,15b-octadecahydro-1H-chryseno[1,2-f]indazole-4-a-carboxamide] are 1 µg/mL (≈ 1.65 µM) and 2 µg/mL (≈ 3.3 µM).
For the compound `CC1(C)CC[C@]2(c3nnc(O)s3)CC[C@]3(C)C(=CCC4[C@@]5(C)Cc6c(n[nH]c6N)C(C)(C)C5CC[C@]43C)C2C1` (stereo partly drawn) [Compound 78, 5-((4aS,6aS,6bR,13aR)-12-Amino-2,2,6a,6b,9,9,13a-heptamethyl-2,3,4,4a,5,6,6a,6b,7,8,8a,9,11,13,13a,13b,14,15b-octadecahydro-1H-chryseno[1,2-f]indazol-4-a-yl)-1,3,4-thiadiazol-2-ol], in the experiment on P. aeruginosa biofilms, the “P. aeruginosa: concentration that reduces the area of the spreading biofilm by greater than or equal to 85%” value is more than 1 µg/mL. The “E. coli: concentration that reduces the area of the spreading biofilm by greater than or equal to 85%” value in the experiment on E. coli biofilms was 1 µg/mL.
With `CC1(C)CC[C@]2(C(=O)Nc3nnc(S(N)(=O)=O)s3)CC[C@]3(C)C(=CCC4[C@@]5(C)Cc6c(n[nH]c6N)C(C)(C)C5CC[C@]43C)C2C1` (stereo partly drawn) [Compound 80, (4aS,6aS,6bR,13aR)-12-Amino-2,2,6a,6b,9,9,13a-heptamethyl-N-(5-sulfamoyl-1,3,4-thiadiazol-2-yl)-2,3,4,4a,5,6,6a,6b,7,8,8a,9,11,13,13a,13b,14,15b-octadecahydro-1H-chryseno[1,2-f]indazole-4-a-carboxamide], the “P. aeruginosa: concentration that reduces the area of the spreading biofilm by greater than or equal to 85%” value with P. aeruginosa biofilms turned out to be 1 µg/mL. Moreover, in the experiment with E. coli biofilms, the “E. coli: concentration that reduces the area of the spreading biofilm by greater than or equal to 85%” value is 1 µg/mL.
In the case of `CC1(C)CC[C@]2(c3n[nH]c(O)c3CCO)CC[C@]3(C)C(=CCC4[C@@]5(C)Cc6c(n[nH]c6N)C(C)(C)C5CC[C@]43C)C2C1` (stereo partly drawn) [Compound 81, 3-((4aS,6aS,6bR,13aR)-12-Amino-2,2,6a,6b,9,9,13a-heptamethyl-2,3,4,4a,5,6,6a,6b,7,8,8a,9,11,13,13a,13b,14,15b-octadecahydro-1H-chryseno[1,2-f]indazol-4-a-yl)-4-(2-hydroxyethyl)-1H-pyrazol-5-ol], the “P. aeruginosa: concentration that reduces the area of the spreading biofilm by greater than or equal to 85%” value in the experiment with P. aeruginosa biofilms came to 0.5 µg/mL. In the experiment with E. coli biofilms, the “E. coli: concentration that reduces the area of the spreading biofilm by greater than or equal to 85%” value is 1 µg/mL.
